{"source": "patent EP0470795A1", "about": "“Process for the manufacture of nitriles” (ZENECA LIMITED, priority 1990, dated 1992)", "system": "angiotensin II-induced pressor responses", "assay": "Test C: antagonism of angiotensin II-induced pressor responses in terminally-anaesthetised or conscious rats", "assay_type": "in vivo", "conditions": "Rattus norvegicus, iv; i.v. administration; read-out: ED₅₀", "method": "This in vivo test involves using terminally-anaesthetised or conscious rats in which an arterial catheter has been implanted under anaesthesia for the measurement of changes in blood pressure. The AII antagonistic effects of the test compound following oral or parenteral administration, are assessed against angiotensin II-induced pressor responses. To ensure that the effect is specific, the effect of the test compound on vasopressin-induced pressor responses may also be determined in the same preparation."}
{"smiles": "Cc1cc(OCc2ccc(-c3ccccc3-c3nnn[nH]3)cc2)c2ccccc2n1.Cl", "note": "[2-methyl-4-[(2′-(1H-tetrazol-5-yl)biphenyl-4-yl)methoxy]quinoline hydrochloride]", "values": [{"measurement": "ED50", "result": 0.5, "unit": "mg/kg"}]}
